Source: patent US10039759B2, “Quinolines as FGFR kinase modulators” (priority 2011, dated 2018)
Read-outs that look alike come from different tables or passages of the source.

How the values were obtained:
[1] = test system: Ba/F3-FGFR3-transfected cells; assay: Ba/F3-FGFR3 (minus IL3 or plus IL3) cellular proliferation assay, Alamar Blue; format: cell-based; conditions: for IC50: read-out: BAF3-FGFR3 (PLUS IL3 Alamar Blue pIC50) (converted)
Summary of the method: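 Ba/F3-FGFR3 cells (20000 per well) in phenol red-free RPMI-1640 with 10% FBS were exposed to compound (10 μM to 0.1 nM) for 24 h at 37° C. Alamar Blue was then added for 4 h and fluorescence read (ex 540, em 590 nm) to give IC50/pIC50; the counterscreen was run with 10 ng/ml murine IL3.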

[2] = test system: Ba/F3-KDR-transfected cells; assay: Ba/F3-KDR (minus IL3 or plus IL3) cellular proliferation assay, Alamar Blue; format: cell-based; conditions: for IC50: read-out: BAF3-KDR (PLUS IL3 Alamar Blue pIC50) (converted)
Summary of the method: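 Ba/F3-KDR cells, 20000 per well, exposed to compounds (10 μM to 0.1 nM) for 24 h at 37°C in RPMI/10% FBS, then Alamar Blue for 4 h; fluorescence ex 540/em 590 nm gives IC50 and pIC50. Counterscreen run with 10 ng/ml murine IL3.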

[3] = molecular target: T1, Ba/F3-Flt3-transfected cells (Homo sapiens, UniProt P36888, cells depend on it, form not given); assay: Ba/F3-Flt3 (minus IL3 or plus IL3) cellular proliferation assay, Alamar Blue; format: cell-based; conditions: minus IL3, 24 hours
T1 construct: BAF3-FLT3 (MIN IL3 Alamar Blue pIC50); other: minus IL3; 24 hours, Alamar Blue
T1 sequence (P36888 1-993): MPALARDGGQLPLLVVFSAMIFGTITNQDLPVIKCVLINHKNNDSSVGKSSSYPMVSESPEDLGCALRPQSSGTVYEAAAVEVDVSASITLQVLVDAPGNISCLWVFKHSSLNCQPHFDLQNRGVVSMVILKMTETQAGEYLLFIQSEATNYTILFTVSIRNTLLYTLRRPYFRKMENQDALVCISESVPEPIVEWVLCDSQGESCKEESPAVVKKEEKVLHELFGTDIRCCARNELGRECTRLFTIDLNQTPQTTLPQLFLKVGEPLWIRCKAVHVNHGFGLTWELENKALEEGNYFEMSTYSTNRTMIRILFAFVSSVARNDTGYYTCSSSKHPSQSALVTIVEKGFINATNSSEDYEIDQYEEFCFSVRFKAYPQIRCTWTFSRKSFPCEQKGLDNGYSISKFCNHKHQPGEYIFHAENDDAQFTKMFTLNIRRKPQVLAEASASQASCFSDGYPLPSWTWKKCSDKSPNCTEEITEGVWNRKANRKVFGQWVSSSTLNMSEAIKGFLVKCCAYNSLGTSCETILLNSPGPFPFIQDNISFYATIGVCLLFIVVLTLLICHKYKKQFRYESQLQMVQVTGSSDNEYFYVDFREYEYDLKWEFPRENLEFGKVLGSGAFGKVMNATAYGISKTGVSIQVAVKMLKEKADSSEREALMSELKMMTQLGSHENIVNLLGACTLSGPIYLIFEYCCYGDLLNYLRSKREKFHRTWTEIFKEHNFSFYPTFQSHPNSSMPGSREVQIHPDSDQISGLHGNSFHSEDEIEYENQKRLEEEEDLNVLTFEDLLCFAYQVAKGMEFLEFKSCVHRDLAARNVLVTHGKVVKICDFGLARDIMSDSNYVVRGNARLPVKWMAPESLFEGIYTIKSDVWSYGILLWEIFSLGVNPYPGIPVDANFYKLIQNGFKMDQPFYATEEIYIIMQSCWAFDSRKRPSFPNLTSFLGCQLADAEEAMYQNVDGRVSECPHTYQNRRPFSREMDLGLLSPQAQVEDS
Procedure: Ba/F3-Flt3 (Minus IL3 or Plus IL3) (Cellular Proliferation Assay)
In a 384 well plate, 100 nl of compound dilution in DMSO was sprayed before adding 50 μl cell culture medium (phenol red free RPMI-1640, 10% FBS, 2 mM L-Glutamine and 50 μg/ml Gentamycin) containing 20000 cells per well of Ba/F3-Flt3-transfected cells. Cells were put in an incubator at 37° C. and 5% CO2. After 24 hours, 10 μl of Alamar Blue solution (0.5 mM K3Fe(CN)6, 0.5 mM K4Fe(CN)6, 0.15 mM Resazurin and 100 mM Phosphate Buffer) was added to the wells, incubated for 4 hours at 37° C. and 5% CO2 before RFU's (Relative Fluorescence Units) (ex. 540 nm., em. 590 nm.) were measured in a fluorescence plate reader.
In this assay, the inhibitory effect of different compound concentrations (range 10 μM to 0.1 nM) was determined and used to calculate an IC50 (M) and pIC50 (−log IC50) value. As a counterscreen the same experiment was performed in the presence of 10 ng/ml murine IL3.

FGFR1 (h) = FGFR1 (h) (Homo sapiens, UniProt P11362); assay: FGFR1 (enzymatic assay), TR-FRET; format: biochemical; conditions: FGFR 1 pIC50, 5 μM ATP, 60 min; pIC50 = -log IC50 (M); average if tested multiple times
[4] = plus IL3 (10 ng/ml murine IL3, counterscreen), 24 hours, Alamar Blue

FGFR1 (h), sequence (P11362 22-822): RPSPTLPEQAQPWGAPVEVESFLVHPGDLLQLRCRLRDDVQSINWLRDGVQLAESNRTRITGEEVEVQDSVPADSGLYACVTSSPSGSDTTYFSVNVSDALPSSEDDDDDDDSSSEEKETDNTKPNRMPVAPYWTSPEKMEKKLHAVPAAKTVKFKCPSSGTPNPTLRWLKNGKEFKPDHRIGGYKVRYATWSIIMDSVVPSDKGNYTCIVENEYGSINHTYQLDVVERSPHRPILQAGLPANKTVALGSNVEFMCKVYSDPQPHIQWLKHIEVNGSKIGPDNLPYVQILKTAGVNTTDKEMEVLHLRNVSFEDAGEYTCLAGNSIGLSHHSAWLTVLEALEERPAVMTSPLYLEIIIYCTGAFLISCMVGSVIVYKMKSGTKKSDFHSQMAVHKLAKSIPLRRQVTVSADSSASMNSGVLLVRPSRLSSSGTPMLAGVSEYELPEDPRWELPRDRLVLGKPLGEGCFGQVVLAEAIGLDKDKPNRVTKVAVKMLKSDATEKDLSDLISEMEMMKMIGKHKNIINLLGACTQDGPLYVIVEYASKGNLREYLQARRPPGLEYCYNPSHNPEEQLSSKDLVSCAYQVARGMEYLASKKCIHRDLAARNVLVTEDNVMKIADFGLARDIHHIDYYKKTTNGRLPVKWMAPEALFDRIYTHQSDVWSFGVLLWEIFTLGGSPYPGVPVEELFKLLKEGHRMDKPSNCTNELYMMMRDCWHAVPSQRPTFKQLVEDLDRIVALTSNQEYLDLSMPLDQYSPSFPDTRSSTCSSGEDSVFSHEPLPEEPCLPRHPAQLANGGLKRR

Row | SMILES | IC50 [1, 4] [µM] | IC50 [2, 4] [µM] | BAF3-FLT3 (MIN IL3 Alamar Blue pIC50) [3] | IC50 (FGFR1 (h)) [M] | other results
1 | COc1cc(OC)cc(N(CC(O)C(F)(F)F)c2ccc3ncc(-c4cnn(C)c4)cc3c2)c1 (single isomer, unassigned) [Compound 24] | > 10 | > 10 | <5 | – | –
2 | COc1cc(OC)cc(N(CC(O)C(F)(F)F)c2ccc3ncc(-c4cnn(C)c4)cc3c2)c1 (single isomer, unassigned) [Compound 25] | – | – | <5 | – | BAF3-FGFR3 (PLUS IL3 Alamar Blue pIC50) [1, 4]: <5; BAF3-KDR (PLUS IL3 Alamar Blue pIC50) [2, 4]: <5
3 | COc1cc(OC)cc(N(CCNC(C)C)c2ccc3ncc(-c4cnn(C)c4)cc3c2)c1 [Compound 1] | – | – | ~5 | – | –
4 | COc1cc(OC)c(F)c(N(CCNC(C)C)c2ccc3ncc(-c4cnn(C)c4)cc3c2)c1 [Compound 2] | – | – | 5.34 | 1.32e-09 | –
5 | COc1cc(OC)cc(N(CCO)c2ccc3ncc(-c4cnn(C)c4)cc3c2)c1 [Compound 3] | > 10 | > 10 | 5.52 | 1.38e-08 | melting point: 195 to 196 °C
6 | COc1cc(OC)cc(N(CCCO)c2ccc3ncc(-c4cnn(C)c4)cc3c2)c1 [Compound 4] | > 10 | > 10 | 5.35 | 1.91e-08 | –
7 | COc1cc(OC)cc(N(CCCNCC(F)(F)F)c2ccc3ncc(-c4cnn(C)c4)cc3c2)c1 [Compound 5] | – | – | 5.06 | – | –
8 | C#CCN(c1cc(OC)cc(OC)c1)c1ccc2ncc(-c3cnn(C)c3)cc2c1 [Compound 6] | > 10 | > 10 | 5.2 | 1.51e-08 | –
9 | COc1cc(OC)cc(N(CC2CCN(c3nccc(OC)n3)C2)c2ccc3ncc(-c4cnn(C)c4)cc3c2)c1 (stereo not drawn) [Compound 7] | > 10 | > 10 | <5 | – | melting point: 132 °C
10 | COc1cc(OC)cc(N(Cc2ncccn2)c2ccc3ncc(-c4cnn(C)c4)cc3c2)c1 [Compound 8] | > 10 | > 10 | <5.47 | – | melting point: 151 °C
11 | COc1cc(OC)cc(N(Cc2nccn2S(=O)(=O)N(C)C)c2ccc3ncc(-c4cnn(C)c4)cc3c2)c1 [Compound 9] | > 10 | > 10 | <5 | 5.62e-09 | –
12 | COc1cc(OC)cc(N(CCCN2CCCC2=O)c2ccc3ncc(-c4cnn(C)c4)cc3c2)c1 [Compound 10] | – | – | <5 | – | –
13 | COc1cc(OC)cc(N(CCCN)c2ccc3ncc(-c4cnn(C)c4)cc3c2)c1 [Compound 11] | > 10 | > 10 | <5 | 3.63e-09 | –
14 | COc1cc(OC)cc(C(O)c2ccc3ncc(-c4cnn(C)c4)cc3c2)c1 (stereo not drawn) [Compound 12] | – | – | <5.47 | 2.95e-07 | IC50 ([1]; 24 h): > 10 µM; IC50 ([2]; 24 h): > 10 µM; melting point: 184 to 193 °C
15 | COc1cc(OC)cc(N(CCNC(C)C)c2ccc3ncc(-c4cnn(CCS(C)(=O)=O)c4)cc3c2)c1 [Compound 14] | > 10 | > 10 | <5 | – | melting point: 129 °C
16 | COc1cc(OC)cc(N(CC#Cc2nccc(OC)n2)c2ccc3ncc(-c4cnn(C)c4)cc3c2)c1 [Compound 16] | – | – | 5.19 | 9.33e-09 | melting point: 203 °C

Row | SMILES | IC50 [1, 4] [µM] | IC50 [2, 4] [µM] | BAF3-FLT3 (MIN IL3 Alamar Blue pIC50) [3] | IC50 (FGFR1 (h)) [M] | other results
17 | COc1cc(OC)cc(N(CC#Cc2ncccc2OC)c2ccc3ncc(-c4cnn(C)c4)cc3c2)c1 [Compound 17] | > 10 | > 10 | <5 | 8.32e-08 | –
18 | COc1cc(OC)cc(N(Cc2ncc[nH]2)c2ccc3ncc(-c4cnn(C)c4)cc3c2)c1 [Compound 18] | > 10 | > 10 | <5 | 2.75e-09 | melting point: 196 °C
19 | COc1cc(OC)cc(N(CCCN2CCCO2)c2ccc3ncc(-c4cnn(C)c4)cc3c2)c1 [Compound 19] | – | – | 6.03 | – | –
20 | COc1cc(OC)cc(N(CCNC(C)C)c2ccc3ncc(-c4cn[nH]c4)cc3c2)c1 [Compound 21] | > 10 | > 10 | 5.09 | – | –
21 | COc1cc(OC)cc(N(CCNC(C)C)c2ccc3ncc(-c4cnn(C5CCCCO5)c4)cc3c2)c1 (stereo not drawn) [Compound 22] | > 10 | > 10 | 5.22 | 1.2e-09 | –
22 | COc1cc(OC)c(F)c(N(CC#Cc2ncccc2OC)c2ccc3ncc(-c4cnn(C)c4)cc3c2)c1 [Compound 26] | – | – | 5.16 | 4.79e-09 | –
23 | COc1cccnc1C#CCN(c1ccc2ncc(-c3cnn(C)c3)cc2c1)c1c(F)c(OC)cc(OC)c1F [Compound 27] | – | – | <5 | 1.64e-09 | –
24 | CNCCN(c1ccc2ncc(-c3cnn(C)c3)cc2c1)c1c(F)c(OC)cc(OC)c1F [Compound 43] | – | – | 5.24 | 1.07e-09 | –
25 | COc1cc(OC)cc(N(CCCN2CCCC2CNS(=O)(=O)C(F)(F)F)c2ccc3ncc(-c4cnn(C)c4)cc3c2)c1 (stereo not drawn) [Compound 47] | > 10 | > 10 | 5.14 | 1.17e-09 | –
26 | COc1cc(OC)cc(N(CC#Cc2nccn2C)c2ccc3ncc(-c4cnn(C)c4)cc3c2)c1 [Compound 48] | > 10 | > 10 | 5.23 | – | –
27 | COc1cc(OC)cc(N(Cc2ncc[nH]2)c2ccc3ncc(-c4ccncc4)cc3c2)c1 [Compound 57] | – | – | <5 | 2.82e-09 | –
28 | COc1cc(OC)cc(N(Cc2nccn2S(=O)(=O)N(C)C)c2ccc3ncc(-c4ccncc4)cc3c2)c1 [Compound 58] | > 10 | > 10 | <5 | – | –
29 | COc1cc(OC)cc(N(Cc2ncc[nH]2)c2ccc3ncc(-c4cccnc4)cc3c2)c1 [Compound 59] | > 10 | > 10 | <5 | 4.68e-09 | –
30 | COc1cc(OC)cc(N(Cc2nccn2S(=O)(=O)N(C)C)c2ccc3ncc(-c4cccnc4)cc3c2)c1 [Compound 60] | – | – | <5 | – | –
31 | COc1cc(Nc2ccc3ncc(-c4cnn(C5CCCCO5)c4)cc3c2)cc(OC)c1 (stereo not drawn) [Int. 8] | > 10 | > 10 | <5 | 9.55e-08 | –
